Experimental data taken from patent publication US9901602B2, “Ejaculum of animals as medicinal material and uses thereof in medicaments for treatment of diseases such as tumors, depression, etc” (Hui CHENG, priority 2008, dated 2018).

System: S180 tumor cells (mouse sarcoma)
Conditions: mice sarcoma S180, stomach lavage, 0.3 ml/10 g body weight/day×10
Excerpt: The mice inoculated by S180 tumor cells (mouse sarcoma) were used as model animals.
In the meantime, non-inoculated mice were feed and used as the native control group.

O=P1(N(CCCl)CCCl)NCCCO1 (centres unmarked) [cyclophosphamide]
Mice body (GPT): 39.2 ± 5.69
Weight of Tumor (g) (X ± SD): 0.614 ± 0.268 g
